In patent publication US8415469B2, “Compounds and methods for kinase modulation, and indications therefor” (Plexxikon Inc., priority 2005, dated 2013):

Assays:
Type in all cases: biochemical
EphB2 = target: T1, EphB2 (Homo sapiens, UniProt P29323); assay: Z'-Lyte FRET kinase assay (Invitrogen), EphB2; settings: read-out: IC50, activity toward kinase EphB2
T1 construct: purchased Invitrogen (assay run by Invitrogen)
T1 sequence (P29323 19-1055): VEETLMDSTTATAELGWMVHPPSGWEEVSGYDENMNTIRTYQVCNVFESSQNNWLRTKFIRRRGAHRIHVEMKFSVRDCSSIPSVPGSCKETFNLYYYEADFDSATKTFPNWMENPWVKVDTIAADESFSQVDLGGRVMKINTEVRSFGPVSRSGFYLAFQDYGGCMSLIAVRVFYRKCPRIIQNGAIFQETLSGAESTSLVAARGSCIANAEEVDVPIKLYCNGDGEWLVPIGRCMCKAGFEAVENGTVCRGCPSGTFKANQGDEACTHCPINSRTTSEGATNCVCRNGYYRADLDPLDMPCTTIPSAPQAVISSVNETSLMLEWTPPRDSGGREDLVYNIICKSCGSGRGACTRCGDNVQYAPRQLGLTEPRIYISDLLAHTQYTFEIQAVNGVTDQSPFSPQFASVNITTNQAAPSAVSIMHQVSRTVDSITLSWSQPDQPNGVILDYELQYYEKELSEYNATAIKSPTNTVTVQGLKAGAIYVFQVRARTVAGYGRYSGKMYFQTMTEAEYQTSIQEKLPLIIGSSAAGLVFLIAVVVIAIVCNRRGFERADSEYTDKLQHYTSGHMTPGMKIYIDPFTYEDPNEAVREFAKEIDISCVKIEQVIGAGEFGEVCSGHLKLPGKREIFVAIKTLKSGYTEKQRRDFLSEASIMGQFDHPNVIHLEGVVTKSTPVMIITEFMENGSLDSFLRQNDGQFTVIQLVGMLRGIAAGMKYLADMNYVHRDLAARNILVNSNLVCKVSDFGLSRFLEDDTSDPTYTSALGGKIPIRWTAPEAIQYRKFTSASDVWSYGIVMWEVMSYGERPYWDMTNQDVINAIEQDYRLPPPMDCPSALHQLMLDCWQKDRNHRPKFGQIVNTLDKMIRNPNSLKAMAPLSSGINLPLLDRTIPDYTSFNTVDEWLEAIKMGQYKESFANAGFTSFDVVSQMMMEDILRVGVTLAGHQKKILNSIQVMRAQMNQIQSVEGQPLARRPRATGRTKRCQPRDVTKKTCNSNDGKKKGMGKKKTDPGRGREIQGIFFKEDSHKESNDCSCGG
How it was run: (§1)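 Serially diluted compound (1% DMSO final) is mixed with kinase plus 2 μM peptide substrate in pH 7.5 HEPES buffer, then ATP is added to 10 μM. After 1 h at room temperature, site-specific protease is added for another hour, reactions are stopped and fluorescence ratio measured.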

B-Raf V600E = target: T2, B-Raf V600E (Homo sapiens, UniProt P15056, V600E); assay: AlphaScreen kinase assay, B-Raf V600E; settings: read-out: IC50, activity toward kinase B-Raf V600E
T2 construct: P4254. pFastBacBD-CDC37 BRAF D437-K722-X, V600E; His6 with pFastBac HT leader (TEV site) (N); made in house; host or cells: Sf9 (baculovirus; chaperone CDC37 co-expressed)

Kit = target: T3, Kit (Homo sapiens, UniProt P10721); assay: AlphaScreen kinase assay, Kit; settings: read-out: IC50, activity toward kinase Kit
T3 construct: P1332.N6 BI PTP KIT M552-K948-X COD; His6 (N); made in house; host or cells: E. coli (PTP1B co-expressed)

Akt3 = Akt3 (Homo sapiens, UniProt Q9Y243); assay: AlphaScreen kinase assay, Akt3; settings: read-out: IC50, activity toward kinase Akt3
How it was run: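 Compounds in DMSO (20 mM stock) were diluted 1:3 across 8 points. Each kinase phosphorylated a biotin-labelled peptide. Signal generated when donor and acceptor beads came close via antibody binding of phosphorylated substrate.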

Yes = target: T4, Yes (Homo sapiens, UniProt P07947); assay: Z'-Lyte FRET kinase assay (Invitrogen), Yes; settings: read-out: IC50, activity toward kinase Yes
T4 construct: purchased Invitrogen (Carlsbad, Calif.), screening service
How it was run: as §1

Measured: IC50

T3 sequence (P10721 with tags, fused parts or gaps): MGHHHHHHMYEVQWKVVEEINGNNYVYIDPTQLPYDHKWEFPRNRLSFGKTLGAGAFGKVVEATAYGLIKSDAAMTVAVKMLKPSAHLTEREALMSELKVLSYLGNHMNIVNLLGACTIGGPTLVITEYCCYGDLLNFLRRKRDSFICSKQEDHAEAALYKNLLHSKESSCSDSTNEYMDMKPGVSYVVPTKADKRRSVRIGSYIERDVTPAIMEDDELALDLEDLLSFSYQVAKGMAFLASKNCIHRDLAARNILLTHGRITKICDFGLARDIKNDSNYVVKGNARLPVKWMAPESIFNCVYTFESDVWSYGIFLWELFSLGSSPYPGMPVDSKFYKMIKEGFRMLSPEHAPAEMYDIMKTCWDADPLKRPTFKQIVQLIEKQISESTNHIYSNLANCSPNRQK
T2 sequence (P15056 with tags, fused parts or gaps V600E): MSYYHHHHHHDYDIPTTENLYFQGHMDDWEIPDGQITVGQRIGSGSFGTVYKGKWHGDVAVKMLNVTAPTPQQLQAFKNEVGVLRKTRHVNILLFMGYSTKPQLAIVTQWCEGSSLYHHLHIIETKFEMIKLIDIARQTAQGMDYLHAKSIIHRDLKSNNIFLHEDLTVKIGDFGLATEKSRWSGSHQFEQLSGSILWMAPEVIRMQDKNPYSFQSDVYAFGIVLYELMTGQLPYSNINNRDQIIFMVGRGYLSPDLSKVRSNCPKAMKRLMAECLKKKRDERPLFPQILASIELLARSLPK
Akt3, sequence (Q9Y243 whole entry): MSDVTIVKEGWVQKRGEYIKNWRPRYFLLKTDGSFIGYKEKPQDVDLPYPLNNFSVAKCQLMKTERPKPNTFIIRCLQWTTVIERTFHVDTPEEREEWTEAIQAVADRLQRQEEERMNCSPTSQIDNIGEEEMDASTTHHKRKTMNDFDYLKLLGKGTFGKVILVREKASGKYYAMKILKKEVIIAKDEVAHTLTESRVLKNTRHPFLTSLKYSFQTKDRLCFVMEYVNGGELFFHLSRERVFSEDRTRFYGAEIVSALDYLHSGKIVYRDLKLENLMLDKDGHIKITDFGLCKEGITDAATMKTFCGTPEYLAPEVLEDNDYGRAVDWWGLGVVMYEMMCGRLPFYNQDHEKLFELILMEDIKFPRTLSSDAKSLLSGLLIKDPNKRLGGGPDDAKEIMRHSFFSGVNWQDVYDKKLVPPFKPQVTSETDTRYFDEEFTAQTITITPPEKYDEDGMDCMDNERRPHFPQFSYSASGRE
T4 sequence (P07947 whole entry): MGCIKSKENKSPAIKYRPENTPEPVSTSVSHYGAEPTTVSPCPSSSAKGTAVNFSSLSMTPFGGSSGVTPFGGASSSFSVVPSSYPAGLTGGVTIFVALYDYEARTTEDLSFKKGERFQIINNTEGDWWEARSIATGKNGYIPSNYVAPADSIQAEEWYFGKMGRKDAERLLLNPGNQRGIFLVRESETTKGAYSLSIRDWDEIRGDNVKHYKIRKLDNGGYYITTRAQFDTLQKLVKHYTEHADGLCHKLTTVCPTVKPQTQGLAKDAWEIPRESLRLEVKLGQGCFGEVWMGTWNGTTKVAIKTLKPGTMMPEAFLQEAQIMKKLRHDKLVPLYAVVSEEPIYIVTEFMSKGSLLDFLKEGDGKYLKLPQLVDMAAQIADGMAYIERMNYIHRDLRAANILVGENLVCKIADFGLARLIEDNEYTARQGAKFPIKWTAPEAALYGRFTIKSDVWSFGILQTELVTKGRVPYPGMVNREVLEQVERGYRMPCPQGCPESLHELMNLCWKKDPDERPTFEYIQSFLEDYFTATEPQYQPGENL

CC(=O)Nc1cccc(-c2cnc3[nH]cc(C(=O)c4cc(O)ccc4F)c3c2)c1 [Compound P-0001]
not listed: Yes
≤ 10 µM: all other assays above

Nc1cccc(-c2cnc3[nH]cc(C(=O)c4cccc(O)c4)c3c2)c1 [Compound P-0003]
not listed: Yes
≤ 10 µM: all other assays above

O=C(c1cc(O)ccc1F)c1c[nH]c2ncccc12 [Compound P-0005]
≤ 10 µM: all assays above

Cc1c(O)cccc1C(=O)c1c[nH]c2ncc(-c3cccnc3)cc12 [Compound P-0006, (3-Hydroxy-2-methyl-phenyl)-(5-pyridin-3-yl-1H-pyrrolo[2,3b]pyridin-3-yl)-methanone]
not listed: Yes
≤ 10 µM: all other assays above

O=C(c1cccc(O)c1)c1c[nH]c2ncc(Br)cc12 [Compound P-0019]
≤ 10 µM: all assays above

O=C(c1ccc(O)cc1Cl)c1c[nH]c2ncccc12 [Compound P-0021]
≤ 10 µM: all assays above

O=C(c1cccc(O)c1)c1c[nH]c2ncc(Nc3ccccc3)cc12 [Compound P-0025]
≤ 10 µM: EphB2 | B-Raf V600E | Akt3

O=C(c1cccc(O)c1F)c1c[nH]c2ncc(-c3cccnc3)cc12 [Compound P-0027, (2-Fluoro-3-hydroxy-phenyl)-(5-pyridin-3-yl-1H-pyrrolo[2,3-b]pyridin-3-yl)-methanone]
≤ 10 µM: all assays above

NC(=O)c1cccc(-c2cnc3[nH]cc(C(=O)c4cccc(O)c4F)c3c2)c1 [Compound P-0034, 3-[3-(2-Fluoro-3-hydroxy-benzoyl)-1H-pyrrolo[2,3-b]pyridin-5-yl]benzamide]
not listed: Yes
≤ 10 µM: all other assays above

CC(=O)Nc1cccc(-c2cnc3[nH]cc(C(=O)c4cccc(O)c4F)c3c2)c1 [Compound P-0035, N-{3-[3-(2-Fluoro-3-hydroxy-benzoyl)-1H-pyrrolo[2,3-b]pyridin-5-yl]-phenyl}-acetamide]
not listed: Yes
≤ 10 µM: all other assays above

O=C(c1cccc(O)c1F)c1c[nH]c2ncc(-c3ccccc3)cc12 [Compound P-0036, (2-fluoro-3-hydroxy-phenyl)-(5-phenyl-1H-pyrrolo[2,3-b]pyridin-3-yl)-methanone]
≤ 10 µM: all assays above

CS(=O)(=O)Nc1cccc(-c2cnc3[nH]cc(C(=O)c4cccc(O)c4F)c3c2)c1 [Compound P-0038, N-{3-[3-(2-Fluoro-3-hydroxy-benzoyl)-1H-pyrrolo[2,3-b]pyridin-5-yl]-phenyl}-methanesulfonamide]
not listed: Yes
≤ 10 µM: all other assays above

Cn1cc(C(F)(F)F)c(-c2ccc(S(=O)(=O)NCc3c[nH]c4ncccc34)s2)n1 [Compound P-0041]
not listed: Yes
≤ 10 µM: all other assays above

O=C(c1cccc(O)c1)c1c[nH]c2ncc(-c3cccnc3)cc12 [Compound P-0048]
not listed: Kit
≤ 10 µM: all other assays above

Cc1c(O)cccc1C(=O)c1c[nH]c2ncc(Br)cc12 [Compound P-0055, (5-Bromo-1H-pyrrolo[2,3-b]pyridin-3-yl)-(3-hydroxy-2-methyl-phenyl)-methanone]
not listed: Kit
≤ 10 µM: all other assays above

O=C(c1cccc(O)c1F)c1c[nH]c2ncc(Br)cc12 [Compound P-0067, (5-bromo-1H-pyrrolo[2,3-b]pyridin-3-yl)-(2-fluoro-3-hydroxy-phenyl)-methanone]
≤ 10 µM: all assays above

COc1ccc(F)c(C(=O)c2c[nH]c3ncc(-c4cccnc4)cc23)c1 [Compound P-0090]
not listed: Akt3
≤ 10 µM: all other assays above

Oc1cc(O)cc(Cc2c[nH]c3ncc(-c4ccsc4)cc23)c1 [Compound P-0093]
not listed: Akt3
≤ 10 µM: all other assays above

CS(=O)(=O)c1cccc(-c2cnc3[nH]cc(C(=O)c4c(F)ccc(F)c4F)c3c2)c1 [Compound P-0102, [5-(3-Methanesulfonyl-phenyl)-1H-pyrrolo[2,3-b]pyridin-3-yl]-(2,3,6-trifluoro-phenyl)-methanone]
not listed: Akt3
≤ 10 µM: all other assays above

Cc1c(O)cccc1C(=O)c1c[nH]c2ncc(-c3cccs3)cc12 [Compound P-0114, (3-Hydroxy-2-methyl-phenyl)-(5-thiophen-2-yl-1H-pyrrolo[2,3b]pyridin-3-yl)-methanone]
not listed: Yes
≤ 10 µM: all other assays above
